Measurements published in patent US5656662A, “Synthesis of optically pure 4-alkenyl- or 4-alkanyl-2-hydroxytetronic acids” (The Ohio State University Research Foundation, priority 1995, dated 1997).

Tests used:
Type in all cases: cell-based
PAF = PAF production by purified human monocytes; design: key: NE: No effect; INHIB: Inhibition; STIM: Stimulation; IC40: 40% Inhibitory Concentration; EC50: 50% Effective Concentration; TC: Tolerated Concentration; IA: Interferes with Assay
Method: This assay measures the ability of test compounds to modulate the amount of PAF produced by purified human monocytes. Compounds are tested for their ability to downregulate the secretion of PAF from activated monocytes, or upregulate secretion of PAF from unstimulated monocytes. Test compounds are incubated for ninety minutes with purified human monocytes ar four dilutions over a range of three log10 concentrations. Where appropriate, zymosan is used to stimulate the monocytes.
The level of PAF in the resultant supernatants is quantitated by immunoassay performed in a 96 well format. PAF levels modulated by unknown compounds are determined by interpolation from a standard curve. All compounds are tested in duplicate with controls and standards.
This assay measures the ability of test compounds to modulate the amount of PAF produced by purified, human monocytes. Compounds are tested for their ability to downregulate the secretion of PAF from activated monocytes, or upregulate secretion of PAF from unstimulated monocytes. Test compounds are incubated for ninety minutes with purified human monocytes ar four dilutions over a range of three log10 concentrations. Where appropriate, zymosan is used to stimulate the monocytes.

TNFα = TNFα production from purified human monocytes; design: key to EFFECT on TNFα: NE: No effect; INHIB: Inhibition; STIM: Stimulation; IC40: 40% Inhibitory Concentration; EC50: 50% Effective Concentration; TC: Tolerated Concentration; IA: Interferes with Assay
Method: This assay determines the effect of test compounds on the production of TNFα from purified human monocytes. Compounds are tested for their ability to downregulate the production of TNFα in activated monocytes, or upregulate secretion of TNFα in unstimulated monocytes. Test compounds are incubated for sixteen hours with purified human monocytes at four dilutions over a range of three log10 concentrations. Where appropriate, lipopolysaccharide (LPS) is used to stimulate the monocytes.
The level of TNFα in the resultant supernatants is quantitated in a solid phase Enzyme-linked Immunoassay (EIA) performed in a 96 well format. TNFα present in the samples is captured by a specific monoclonal antibody immobilized on the well, and detected with an anti-TNFα polyclonal antibody conjugated to horse radish peroxidase, followed by an appropriate substrate. The levels of TNFα are determined by interpolation of the resultant color change in the substrate from a standard curve. All supernatants are tested in duplicate with controls and standards.
This assay determines the effect of test compounds on the production of TNF from purified human monocytes. Compounds are tested for their ability to downregulate the production of TNFα in activated monocytes, or upregulate secretion of TNFα in unstimulated monocytes. Test compounds are incubated for sixteeen hours with purified human monocytes at four dilutions over a range of three log10 concentrations. Where appropriate, lipopolysaccharide (LPS) is used to stimulate the monocytes.

[1] = system: normal human mononuclear cells; assay: PHA mitogen-stimulated cell proliferation; design: key: NE: No effect; INHIB: Inhibition; STIM: Stimulation; IC40: 40% Inhibitory Concentration; EC50: 50% Effective Concentration; TC: Tolerated Concentration; IA: Interferes with Assay
Method: The purpose of this procedure is to determine the effect of test compounds on Mixed Lymphocyte Reaction and Mitogen-Induced Proliferation of normal human mononuclear cells.
Procedure for Cell Proliferation: Peripheral blood mononuclear cells (PBMNC) are added to a 96-well cell culture plate. Compounds are tested at four dilutions, in quadruplicates, over a range of three log10 concentrations along with negative an inhibitory controls. The test compounds are incubated with the cells for one hour, phytohemagglutinin (PHA) is then added to all reactive test wells and the cultures are incubated for three days. The cultures are then pulsed with ^3 H incorporation is then determined with a Wallac Betaplate counter.
Procedure for Cell Proliferation: Peripheral blood mononuclear cells (PBMNC) are added to a 96-well cell culture plate. Compounds are tested at four dilutions, in quadruplicates, over a range of three log10 concentrations along with negative an inhibitory controls. The test compounds are incubated with, the cells for one hour, phytohemagglutinin (PHA) is then added to all reactive test wells and the cultures are incubated for thee days. The cultures are then pulsed with ^3 H incorporation is then determined with a Wallac Betaplate counter.

purified human monocytes = assay: Chemotactic response of purified human monocytes; design: key: NE: No effect; INHIB: Inhibition; STIM: Stimulation; IC40: 40% Inhibitory Concentration; EC50: 50% Effective Concentration; TC: Tolerated Concentration; IA: Interferes with Assay; conditions: STIMULATED
Method: This assay measures the ability of test compounds to modulate the chemotactic response of purified human monocytes in response to a chemoattractant. Compounds are tested at four dilutions over a range of three log10 concentrations. The test compounds are combined with monocytes labeled with a fluorescent indicator and placed in the top wells of a chemotaxis chamber, above an optimized concentration of a monocyte chemoattractant placed in the wells below, and separated by a microporous filter. After sixty minutes, the migration of cells through the filter is quantified flurorometrically, and expressed in relation to spontaneous and maximum controls. All tests are carried out in triplicate.

phospholipase A2 = assay: Cellular phospholipase A2 activity in human monocytes; design: key: NE: No effect; INHIB: Inhibition; STIM: Stimulation; IC40: 40% Inhibitory Concentration; EC50: 50% Effective Concentration; TC: Tolerated Concentration; IA: Interferes with Assay
Method: This assay measures the ability of test compounds to modulate the activity of the cellular phospholipase A2 in human monocytes. Compounds are tested for their ability to inhibit stimulate phospholipase A2 activity or activate basal activity in unstimulated monocytes. Test compounds are incubated for ninety minutes with purified human monocytes at four dilutions over a range of three log10 concentrations. Where appropriate, zymosan is used to stimulate the monocytes.
Monocytes with the arachidonyl moiety of phospholipids radiolabelled are utilized in a 96 well format. Percent release of radiolabelled fatty acid into the extracellular medium is quantified by liquid scintillation counting. All compounds are tested in duplicate with controls and standards.

TxA2 = TxA2 production by purified human monocytes; design: key to EFFECT on TxA2: NE: No effect; INHIB: Inhibition; STIM: Stimulation; IC40: 40% Inhibitory Concentration; EC50: 50% Effective Concentration; TC: Tolerated Concentration; IA: Interferes with Assay
Method: This procedure measures the ability of test compounds to modulate the amount of TxA2 (the major cyclo-oxygenase product) produced by purified human monocytes. Compounds are tested for their ability to downregulate the secretion of TxA2 from activated monocytes, or upregulate secretion of TxA2 from unstimulated monocytes. Test compounds are incubated for ninety minutes with purified human monocytes at four dilutions over a range of three log10 concentrations. Where appropriate, zymosan is used to stimulate the monocytes.
The level of TxA2 in the resultant supernatants is quantitated by immunoassay performed in a 96 well format. TxA2 levels modulated by unknown compounds are determined by interpolation from a standard curve. All compounds are tested in duplicate with controls and standards.

Compound: CCCCCCCCCCCCCC/C=C\CC[C@@H]1OC(=O)C(O)=C1O [(S)-3,4-Dihydroxy-5-[(Z)-3-octadecenyl]-2(5H)-furanone]
- EFFECT on PAF (PAF; STIMULATED): NE
- EFFECT on PAF (PAF; UNSTIMULATED): NE
- EC50 (TNFα; Homo sapiens, Monocyte, STIMULATED, STIM): 38 µM
- EFFECT on TNFα (TNFα; STIMULATED): STIM
- EFFECT on TNFα (TNFα; UNSTIMULATED): NE
- EFFECT on PHA [1]: NE
- EFFECT on CHEMOTAXIS (purified human monocytes): NE
- EFFECT on PLA2 (phospholipase A2; STIMULATED): NE
- EFFECT on PLA2 (phospholipase A2; UNSTIMULATED): NE
- EC50 (TxA2; Homo sapiens, Monocyte, STIMULATED, INHIB): 5 µM
- EFFECT on TxA2 (TxA2; STIMULATED): INHIB
- EFFECT on TxA2 (TxA2; UNSTIMULATED): NE
